Experimental findings from US20180303807A1, “ANDROGEN RECEPTOR LIGANDS” (DUKE UNIVERSITY, priority 2015, published 2018) are described below.

This experiment addresses T1, AR (Homo sapiens, UniProt P10275).
T1 construct: expressed in transfected cells; host or cells: CV1 cells
T1 sequence (P10275 1-920): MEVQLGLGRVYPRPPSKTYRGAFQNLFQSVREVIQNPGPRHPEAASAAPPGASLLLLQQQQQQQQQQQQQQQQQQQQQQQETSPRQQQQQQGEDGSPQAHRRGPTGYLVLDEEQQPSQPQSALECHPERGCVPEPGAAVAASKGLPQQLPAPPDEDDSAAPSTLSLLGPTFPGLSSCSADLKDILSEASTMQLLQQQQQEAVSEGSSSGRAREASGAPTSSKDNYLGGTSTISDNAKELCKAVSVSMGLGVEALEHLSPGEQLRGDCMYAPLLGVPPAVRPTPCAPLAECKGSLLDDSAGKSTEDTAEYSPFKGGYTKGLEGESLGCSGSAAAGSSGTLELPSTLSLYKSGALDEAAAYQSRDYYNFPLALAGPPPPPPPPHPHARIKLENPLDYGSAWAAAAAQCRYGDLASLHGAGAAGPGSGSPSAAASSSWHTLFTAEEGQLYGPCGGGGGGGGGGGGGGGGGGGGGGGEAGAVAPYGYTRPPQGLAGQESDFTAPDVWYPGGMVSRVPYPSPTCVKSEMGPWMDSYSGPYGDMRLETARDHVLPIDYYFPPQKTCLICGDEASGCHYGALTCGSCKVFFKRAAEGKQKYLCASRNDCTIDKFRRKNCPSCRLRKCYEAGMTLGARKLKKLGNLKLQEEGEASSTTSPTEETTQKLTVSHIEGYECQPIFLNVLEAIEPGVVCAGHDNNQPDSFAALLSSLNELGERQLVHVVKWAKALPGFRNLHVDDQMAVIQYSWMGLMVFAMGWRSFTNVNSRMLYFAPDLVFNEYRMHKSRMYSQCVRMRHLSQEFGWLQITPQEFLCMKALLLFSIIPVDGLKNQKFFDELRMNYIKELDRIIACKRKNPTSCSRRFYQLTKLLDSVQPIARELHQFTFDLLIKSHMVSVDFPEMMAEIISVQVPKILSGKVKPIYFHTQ
Put plainly: Reporter gene assay, AR transcriptional (MMTV-Luc) in CV1 cells. The experiment is classed as cell-based. To be noted: pcDNA-AR + MMTV-Luc, 0.1 nM R1881 plus test compound, 24 hrs, read-out: B1 = AR transcriptional IC50 (μM) in CV1 cells. Summed up:
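CV1 cells transiently co-transfected with human AR, MMTV-Luc reporter and Renilla-Luc (transfection efficiency and toxicity read-out), then stimulated 24 h with 0.1 nM R1881 plus increasing test compound concentrations. Firefly and Renilla luciferase quantified by dual-luciferase assay; IC50 derived from concentration-response.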
For orientation: Reporter assays use an easily measured gene product as a stand-in for the process of interest.
Consider `O=C1CCCC2=C1Nc1ccc3ccccc3c1C2c1ccc([N+](=O)[O-])cc1` (stereo not drawn) [Compound A10], for which the concentration for half-maximal inhibition (IC50) was 5.7 µM. For `O=C1CCCC2=C1C(c1ccc([N+](=O)[O-])cc1)c1c(ccc3ccccc13)N2` (stereo not drawn) [Compound A1, 12-(4-nitrophenyl)-8,9,10,12-tetrahydrobenzo[a]acridin-11(7H)-one], the 50% inhibitory concentration (IC50) stood at 4.4 µM. To `CC1CC(=O)C2=C(C1)Nc1ccc3ccccc3c1C2c1ccc(F)cc1` (stereo not drawn) [Compound A4] belongs 2.6 µM.

In general, IC50 refers to the concentration that inhibits the measured activity by half.
